Test results published in patent US20250296942A1, “Phosphonate-Based Coordination Complexes and Methods of Preparation and Use Thereof” (University of Puerto Rico, priority 2021, published 2025).

Key:
[1] = Dissolution of ZOLE and ZOLE-based BPCCs in PBS (UV-Vis 208 nm); type: physicochemical
Method: Rate measurements were recorded for the reagent grade ZOLE, ZOLE-Ca forms I and II, ZOLE-Mg forms I and II, ZOLE-Zn forms I and II in PBS, against a reagent blank. […] Absorbance measurements were performed on an Agilent Technologies Cary Series UV-Vis Spectrophotometer, Cary 100 UV-Vis model; using the UV Cary Scan software version v.20.0.470. All measurements were performed with a 400-200 nm scan.
Dissolution of ZOLE-based BPCCs was compared to that of ZOLE (active ingredient of Reclast@), to assess the structural stability of these materials in PBS and FaSSGF.
(§4) Dissolution assays employed a maximum concentration of 0.05 mg/mL of ZOLE, which corresponded to the clinically utilized dosage of these BP.

[2] = Dissolution of ZOLE and ZOLE-Ca form II in FaSSGF; type: physicochemical
Method: For ZOLE and ZOLE-Ca form II, dissolution measurements were performed in fasted-state simulated gastric fluid (FaSSGF). […] Absorbance measurements were performed on an Agilent Technologies Cary Series UV-Vis Spectrophotometer, Cary 100 UV-Vis model; using the UV Cary Scan software version v.20.0.470. All measurements were performed with a 400-200 nm scan.
as §4
To further investigate if the ZOLE-based BPCCs presented pH-dependent degradation, dissolution of ZOLE-Ca Form II in FaSSGF was performed.

[3] = test system: human breast cancer MDA-MB-231 cell line; experiment: AlamarBlue cytotoxicity, ZOLE and nano-Ca@ZOLE, MDA-MB-231; type: cell-based; settings: for IC50: Homo sapiens
Method: (§1) Cell culture methods: The MDA-MB-231 cell line was cultured in DMEM, 1% Pen-Strep, and 10% FBS at 37° C. in 5% CO2. The hFOB 1.19 cell line was cultured in 1:1 DMEM:F-12, 0.3 mg/mL G418, and 10% FBS at 34° C. in 5% CO2. Cell passages were performed weekly at 80% of cell confluency, and media was exchanged twice a week.
(§2) Cell treatments: Both cell lines were treated with ZOLE (control) and nano-Ca@ZOLE (experimental). First, to determine the half-maximal inhibitory concentration (IC50) two-fold serial dilutions of ZOLE (0-200 μM) were prepared. Both cell lines (MDA-MB-231 and hFOB 1.19) were seeded in 96 well plates at 2.5×10^5 cell/mL. The cells were incubated for 24 h at 37° C. (MDA-MB-231) and 34° C. (hFOB 1.19), respectively. After an initial incubation period, both cell lines were treated with 100 μL of the ZOLE solutions previously prepared, and incubation was performed for 24, 48, and 72 h at the respective incubation temperatures. For both cell lines, media (MDA-MB-231: DMEM, Pen-Strep and hFOB 1.19: DMEM, F-12, G418) were used with control groups. AlamarBlue® assay was utilized to determine cell proliferation; for this, 10% of AlamarBlue® solution in PBS was prepared. Finally, media was removed from the 96 well plates, 100 μL of 10% AlamarBlue® solution was added, and the cells were incubated for 4 h at the conditions previously set forth herein. After the AlamarBlue® assay, fluorescence (λexc=560 nm, m=590 nm) was evaluated employing an Infinite M200 PRO Tecan Microplate Reader. Live cells were assessed comparing viability of the control group (100%) with cells treated with the ZOLE solutions. The nonlinear regression method using Graph Pad Prism 8 was applied to fit the dose-response curves (% cell live vs concentration) and determined the IC50 values for ZOLE.
(§3) The percentage of relative cell live (% RCL) for ZOLE (control) and nano-Ca@ZOLE (experimental) were investigated at selected concentrations (1.9, 3.8, 7.5, and 15 μM) in both cell lines. Treatments at these concentrations were carried out at 24, 48, and 72 h for ZOLE and nano-Ca@ZOLE. The cell seeding and AlamarBlue® assay were completed as described above for IC50 determination in both cell lines. Graph Pad Prism 8 was utilized to plot the % RCL found at concentrations of 1.9, 3.8, 7.5, and 15 μM after 24, 48, and 72 h of treatment. All experiments were performed in triplicates and the data was statistically treated using mean, standard deviation, and the coefficient of variation percentage (% CV).
In this Example, the human breast cancer MDA-MB-231 and the osteoblast-like hFOB 1.19 cell lines were selected to assess cytotoxicity effects of nano-Ca@ZOLE nanocrystals. […] While, the immortalized human fetal hFOB 1.19 cell line is a homogeneous model that allows the study of osteoblast differentiation, these cells were employed to imitate the normal human bone microenvironment. To determine the IC50 values against MDA-MB-231 and hFOB 1.19 cell lines, concentrations of 0-200 μM of ZOLE were employed.

[4] = Hydroxyapatite (HA) binding assay of ZOLE and nano-Ca@ZOLE
Method: Hydroxyapatite (HA) binding assay: For the binding assay of nano-Ca@ZOLE, 20 mg of hydroxyapatite (HA) were exposed to 3 mL of a nano-Ca@ZOLE in PBS solution (0.5 mg/mL), for 0-11 days at 37° C. As control groups, nano-Ca@ZOLE and HA, both in PBS, were employed. As a comparative method, the binding assay for ZOLE “as received” was performed employing the same parameters as for the nanocrystals. For the experimental groups (HA-nano-Ca@ZOLE and HA-ZOLE), collection was performed in duplicate. Samples were collected each day for 11 consecutive days. After each time point, supernatant was collected and centrifuged (1,500 rpm, 8 min). Absorbance measurements were performed at 208 nm (λmax) to determine the percentage of ZOLE and nano-Ca@ZOLE bound to HA. Solid samples of HA, HA-ZOLE, and HA-nano-Ca@ZOLE were characterized by EDS.
The ability of nano-Ca@ZOLE to bind under simulated physiological conditions to the main constituent of the bone microenvironment, hydroxyapatite (HA), was probed through a binding assay. The binding to HA was determined by monitoring the decrease in the ZOLE concentration of the supernatant using absorption measurements (λmax=208 nm).

[5] = test system: normal osteoblast-like hFOB 1.19 cell line; experiment: AlamarBlue cytotoxicity, ZOLE and nano-Ca@ZOLE, hFOB 1.19; type: cell-based, human; settings: for IC50: Homo sapiens
Method: as §1, §2, §3
In this Example, the human breast cancer MDA-MB-231 and the osteoblast-like hFOB 1.19 cell lines were selected to assess cytotoxicity effects of nano-Ca@ZOLE nanocrystals. […]

O=P(O)(O)C(O)(Cn1ccnc1)P(=O)(O)O [ZOLE, zoledronic acid]
time to reach maximum dissolution ([1]; PBS pH 7.4): 30 min
dissolution / equilibrium solubility (maximum ZOLE released) ([1]; PBS pH 7.4, 37 °C): 100%
time to reach maximum dissolution ([2]; FaSSGF pH 1.6): 3 h
dissolution / equilibrium solubility (maximum ZOLE released) ([2]; FaSSGF pH 1.6, 37 °C): 100%
% RCL (relative cell live) ([3]; 1.9 μM, time not stated): ~100%
% RCL ([3]; 3.8 μM, time not stated): ~100%
% RCL ([3]; 15 μM, 48 h): 80±2%
% RCL ([3]; 15 μM, 72 h): 58±2%
IC50 ([3]; 24 h): > 200 µM
IC50 ([3]; 48 h): > 200 µM
IC50 ([3]; 72 h): 35 µM
time to reach maximum binding to HA ([4]; PBS pH 7.4): 8 days
maximum binding to HA ([4]; PBS pH 7.4, 37 °C, 0-11 days): 82%
bound to HA ([4]; PBS pH 7.4, 37 °C, 1 day (24 h)): 15%
% RCL / cell death ([5]; 1.9-15 μM, 24, 48, 72 h): no significant cell death
IC50 ([5]; 24 h): > 200 µM
IC50 ([5]; 48 h): 86 ± 3 µM
IC50 ([5]; 72 h): 49 ± 4 µM
